Data on nine compounds can be found in ChEMBL document CHEMBL1139203, “Syntheses and antiproliferative evaluation of oxyphenisatin derivatives” (Bioorg Med Chem Lett, 2007).

A word on the IC50: it is the concentration at which inhibition is half-maximal. By solubility is commonly meant how much of the substance goes into solution per volume. Lower therefore signals a poorly soluble substance.

One data set deals with Cytochrome P450 3A4 (Homo sapiens, UniProt P08684). The experiment in a line: Inhibition of human CYP3A4. The class given is ADME.
A further data set has as its target Cytochrome P450 2D6 (Homo sapiens, UniProt P10635). Put plainly: Inhibition of human CYP2D6. The class given is ADME.
The target of another data set is Cytochrome P450 2C19 (Homo sapiens, UniProt P33261). Put plainly: Inhibition of human CYP2C19. The data set is classed as ADME.
A short description of data set [1]: Permeability across human Caco-2 cell membrane. The data set is classed as ADME, cell-based. Particulars: read-out: permeability. (In general: Passage across Caco-2 layers is used to estimate intestinal permeability.)
Data set [2] is described as follows: Antiproliferative activity against human MDA231 cells. The data set is classed as functional, cell-based. The conditions noted are these: MDA-MB-231.
The next data set deals with T1, Cytochrome P450 1A2 (Homo sapiens, UniProt P05177).
T1 sequence (P05177 whole entry): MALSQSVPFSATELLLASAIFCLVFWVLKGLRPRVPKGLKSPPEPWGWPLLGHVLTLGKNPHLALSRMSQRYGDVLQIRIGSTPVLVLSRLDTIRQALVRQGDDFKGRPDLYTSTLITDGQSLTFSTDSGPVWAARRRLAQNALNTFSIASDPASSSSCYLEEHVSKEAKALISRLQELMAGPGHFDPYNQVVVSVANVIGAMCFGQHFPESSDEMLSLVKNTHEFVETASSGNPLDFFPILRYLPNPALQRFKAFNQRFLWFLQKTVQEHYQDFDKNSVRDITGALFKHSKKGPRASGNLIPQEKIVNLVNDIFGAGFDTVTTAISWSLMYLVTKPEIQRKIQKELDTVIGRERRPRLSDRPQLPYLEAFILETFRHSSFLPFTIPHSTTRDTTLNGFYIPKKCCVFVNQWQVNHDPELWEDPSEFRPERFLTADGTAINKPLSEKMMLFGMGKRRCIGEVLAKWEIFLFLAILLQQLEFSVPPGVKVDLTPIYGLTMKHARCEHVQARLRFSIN
The experiment in a line: Inhibition of human CYP1A2. The class given is ADME.

Data set [3] is described as follows: Antiproliferative activity against human MDA468 cells. The class given is functional, cell-based. The conditions noted are these: MDA-MB-468.
The target in a further data set is Cytochrome P450 2C9 (Homo sapiens, UniProt P11712). Put plainly: Inhibition of human CYP2C9. The data set is classed as ADME.
The next data set has as its system Serum. Put plainly: Protein binding to human serum. The class given is ADME, cell-free.
A short description of data set [4]: Aqueous solubility at pH 7.0. The class given is physicochemical.

Each structure is given as a SMILES string. Converted amounts (≈) assume the structure as drawn.

Chain of Cytochrome P450 3A4 (P08684 whole entry): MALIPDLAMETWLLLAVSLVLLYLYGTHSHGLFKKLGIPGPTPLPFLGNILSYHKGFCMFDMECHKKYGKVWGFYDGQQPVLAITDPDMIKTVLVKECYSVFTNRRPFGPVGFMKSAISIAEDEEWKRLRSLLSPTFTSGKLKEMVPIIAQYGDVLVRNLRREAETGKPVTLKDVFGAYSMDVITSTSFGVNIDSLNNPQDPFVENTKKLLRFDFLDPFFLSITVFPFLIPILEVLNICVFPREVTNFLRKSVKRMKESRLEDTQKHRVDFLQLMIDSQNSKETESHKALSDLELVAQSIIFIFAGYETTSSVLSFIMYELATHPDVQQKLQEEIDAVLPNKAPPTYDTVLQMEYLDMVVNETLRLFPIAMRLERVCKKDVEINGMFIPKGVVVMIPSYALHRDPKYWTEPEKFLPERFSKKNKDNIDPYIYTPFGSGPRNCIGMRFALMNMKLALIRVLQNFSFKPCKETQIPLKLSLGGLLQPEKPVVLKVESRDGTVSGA
Chain of Cytochrome P450 2C9 (P11712 whole entry): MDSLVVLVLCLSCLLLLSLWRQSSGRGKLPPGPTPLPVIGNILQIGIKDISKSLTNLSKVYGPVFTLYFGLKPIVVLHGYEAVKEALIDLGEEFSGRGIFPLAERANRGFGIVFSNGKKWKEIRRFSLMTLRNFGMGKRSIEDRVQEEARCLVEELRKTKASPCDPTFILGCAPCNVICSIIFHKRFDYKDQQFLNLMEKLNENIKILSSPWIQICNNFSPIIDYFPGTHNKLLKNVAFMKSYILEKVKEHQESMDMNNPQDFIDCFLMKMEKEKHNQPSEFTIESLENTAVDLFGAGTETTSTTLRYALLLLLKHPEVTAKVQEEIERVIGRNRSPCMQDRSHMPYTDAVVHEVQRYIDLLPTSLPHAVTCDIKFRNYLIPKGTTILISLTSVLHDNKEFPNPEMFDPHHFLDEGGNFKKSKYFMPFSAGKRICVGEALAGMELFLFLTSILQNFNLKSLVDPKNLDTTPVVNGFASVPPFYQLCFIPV
Chain of Cytochrome P450 2C19 (P33261 whole entry): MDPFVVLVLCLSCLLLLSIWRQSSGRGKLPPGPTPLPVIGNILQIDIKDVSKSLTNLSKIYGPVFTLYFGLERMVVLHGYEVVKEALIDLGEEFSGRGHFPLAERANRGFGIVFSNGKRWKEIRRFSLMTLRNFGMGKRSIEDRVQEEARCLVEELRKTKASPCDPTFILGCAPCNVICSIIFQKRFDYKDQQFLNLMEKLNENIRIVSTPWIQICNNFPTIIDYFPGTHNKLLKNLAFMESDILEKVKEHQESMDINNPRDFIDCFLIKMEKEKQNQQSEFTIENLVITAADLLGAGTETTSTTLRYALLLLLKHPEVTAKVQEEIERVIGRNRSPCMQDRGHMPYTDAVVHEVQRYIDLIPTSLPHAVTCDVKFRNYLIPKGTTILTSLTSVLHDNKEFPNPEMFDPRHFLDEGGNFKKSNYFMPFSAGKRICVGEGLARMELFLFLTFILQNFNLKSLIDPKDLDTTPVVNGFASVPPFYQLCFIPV
Chain of Cytochrome P450 2D6 (P10635 whole entry): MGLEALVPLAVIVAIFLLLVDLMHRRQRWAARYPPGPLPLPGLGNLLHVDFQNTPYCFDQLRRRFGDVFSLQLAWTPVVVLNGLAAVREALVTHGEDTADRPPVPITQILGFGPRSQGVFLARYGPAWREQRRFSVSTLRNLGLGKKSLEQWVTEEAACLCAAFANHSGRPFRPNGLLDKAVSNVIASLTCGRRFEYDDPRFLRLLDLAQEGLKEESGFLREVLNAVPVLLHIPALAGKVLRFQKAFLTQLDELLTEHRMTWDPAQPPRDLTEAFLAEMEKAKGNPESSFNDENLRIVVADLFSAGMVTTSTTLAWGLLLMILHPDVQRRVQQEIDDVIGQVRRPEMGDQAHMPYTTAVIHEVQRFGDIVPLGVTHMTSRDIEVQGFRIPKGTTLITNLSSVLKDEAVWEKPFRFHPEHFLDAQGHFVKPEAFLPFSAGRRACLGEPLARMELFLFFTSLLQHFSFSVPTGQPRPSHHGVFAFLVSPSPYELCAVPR

As for `O=C1Nc2c(ccc(F)c2F)C1(c1ccc(O)cc1)c1ccc(O)cc1`, the Activity was above 10 µM at Cytochrome P450 3A4; above 10 µM on Cytochrome P450 2D6; 1 µM at Cytochrome P450 2C19; above 10 µM at Cytochrome P450 1A2; 1 µM at Cytochrome P450 2C9; 98% with Serum. The Papp in data set [1] turned out to be 4.31 ×10⁻⁶ cm/s. Besides, the IC50 in data set [2] is above 3000 nM; in [3], 3 nM. In data set [4], this compound displayed a solubility of 230 µg/mL (≈ 651 µM).
As to `O=C1Nc2c(ccc3c2CCCCC3)C1(c1ccc(O)cc1)c1ccc(O)cc1`, the half-inhibitory concentration (IC50) in [2] was above 3000 nM; in data set [3], 55 nM.
As to `Cc1cccc2c1NC(=O)C2(c1ccc(O)cc1)c1ccc(O)cc1`, the IC50 in [2] was above 3000 nM; in data set [3] it was 27 nM.
For `O=C1Nc2c(C(F)(F)F)cccc2C1(c1ccc(O)cc1)c1ccc(O)cc1`, the Activity on Cytochrome P450 3A4 is above 10 µM; at Cytochrome P450 2D6, above 10 µM; at Cytochrome P450 2C19, 1 µM; at Cytochrome P450 1A2, above 10 µM; on Cytochrome P450 2C9, 1 µM. For the same compound, the Papp in data set [1] turned out to be 1.96 ×10⁻⁶ cm/s. The same compound displayed a solubility in [4] of 640 µg/mL (≈ 1660 µM).
For `O=C1Nc2ccccc2C1(c1ccc(O)cc1)c1ccc(O)cc1` [OXYPHENISATINE], the IC50 in data set [2] is above 3000 nM; in [3], 112 nM.
The like results for `N#Cc1cccc2c1NC(=O)C2(c1ccc(O)cc1)c1ccc(O)cc1` were, in that order, above 3000 nM and 57 nM.
For the compound `O=C(O)c1cccc2c1NC(=O)C2(c1ccc(O)cc1)c1ccc(O)cc1`, the IC50 in [2] and in data set [3] was above 3000 nM throughout.
With `COc1ccc(C2(c3ccc(OC)cc3)C(=O)Nc3ccccc32)cc1`, the results for the IC50 in data set [2] and in [3] were above 3000 nM and 1800 nM, respectively.
With `O=C1Nc2c(I)cccc2C1(c1ccc(O)cc1)c1ccc(O)cc1`, the IC50 in data set [2] is above 3000 nM; in data set [3], 62 nM.
